# Test results reported in US20110064775A1, “METALLO-ORGANIC SYSTEM FOR THE ENCAPSULATION AND RELEASE OF COMPOUNDS OF INTEREST, METHOD FOR OBTAINING SAME AND USES THEREOF” (CONSEJO SUPERIOR DE INVESTIGACIONES CIENTIFÍCAS, priority 2008, published 2011).
# “Also recorded” adds a separate entry of the source.
# Test: fluorescence emission spectrum of encapsulated versus free substance (integrity after encapsulation)
# Type: physicochemical
# Settings: encapsulated vs free state
# Excerpt: Both images have been obtained using an AxioObserver Z1M (Zeiss Microscope) optical microscope.
# The scanning and fluorescence images have been taken using a Hitachi S-570 scanning microscope and an AxioObserver Z1M (Zeiss 25 Microscope) optical microscope, respectively. The fluorescence intensities have been obtained using an Applied Photophysics fluorometer with a Quantel pulsed laser.
smiles,measurement,value
COc1cccc2c1C(=O)c1c(O)c3c(c(O)c1C2=O)C[C@@](O)(C(=O)CO)C[C@@H]3O[C@H]1C[C@H](N)[C@H](O)[C@H](C)O1 [doxorubicin],modification or degradation during the encapsulation process,has not been modified; also recorded: has not been modified or degraded
